# The kinase profiling compilation of Christmann-Franck et al. (2016)
# Columns and labels:
# CDC42BPA (human) = CDC42BPA (human) (UniProt Q5VT25); assay: Caliper, Mobility shift assay off-chip
# CSNK1G1 (human) = CSNK1G1 (human) (UniProt Q9HCP0); assay: Caliper, Mobility shift assay off-chip
# DYRK3 (human) = DYRK3 (human) (UniProt O43781); assay: Caliper, Mobility shift assay off-chip
# IRAK4 (human) = IRAK4 (human) (UniProt Q9NWZ3); assay: Caliper, Mobility shift assay off-chip
# MAPK12 (human) = MAPK12 (human) (UniProt P53778); assay: Caliper, Mobility shift assay off-chip
# MST4 (human) = MST4 (human) (UniProt Q9P289); assay: Caliper, Mobility shift assay off-chip
# NTRK2 (human) = NTRK2 (human) (UniProt Q16620); assay: Caliper, Mobility shift assay off-chip
# PRKACA (human) = PRKACA (human) (UniProt P17612); assay: Caliper, Mobility shift assay off-chip
# SLK (human) = SLK (human) (UniProt Q9H2G2); assay: Caliper, Mobility shift assay off-chip
# Chain of SLK (human) (Q9H2G2 whole entry, looked up): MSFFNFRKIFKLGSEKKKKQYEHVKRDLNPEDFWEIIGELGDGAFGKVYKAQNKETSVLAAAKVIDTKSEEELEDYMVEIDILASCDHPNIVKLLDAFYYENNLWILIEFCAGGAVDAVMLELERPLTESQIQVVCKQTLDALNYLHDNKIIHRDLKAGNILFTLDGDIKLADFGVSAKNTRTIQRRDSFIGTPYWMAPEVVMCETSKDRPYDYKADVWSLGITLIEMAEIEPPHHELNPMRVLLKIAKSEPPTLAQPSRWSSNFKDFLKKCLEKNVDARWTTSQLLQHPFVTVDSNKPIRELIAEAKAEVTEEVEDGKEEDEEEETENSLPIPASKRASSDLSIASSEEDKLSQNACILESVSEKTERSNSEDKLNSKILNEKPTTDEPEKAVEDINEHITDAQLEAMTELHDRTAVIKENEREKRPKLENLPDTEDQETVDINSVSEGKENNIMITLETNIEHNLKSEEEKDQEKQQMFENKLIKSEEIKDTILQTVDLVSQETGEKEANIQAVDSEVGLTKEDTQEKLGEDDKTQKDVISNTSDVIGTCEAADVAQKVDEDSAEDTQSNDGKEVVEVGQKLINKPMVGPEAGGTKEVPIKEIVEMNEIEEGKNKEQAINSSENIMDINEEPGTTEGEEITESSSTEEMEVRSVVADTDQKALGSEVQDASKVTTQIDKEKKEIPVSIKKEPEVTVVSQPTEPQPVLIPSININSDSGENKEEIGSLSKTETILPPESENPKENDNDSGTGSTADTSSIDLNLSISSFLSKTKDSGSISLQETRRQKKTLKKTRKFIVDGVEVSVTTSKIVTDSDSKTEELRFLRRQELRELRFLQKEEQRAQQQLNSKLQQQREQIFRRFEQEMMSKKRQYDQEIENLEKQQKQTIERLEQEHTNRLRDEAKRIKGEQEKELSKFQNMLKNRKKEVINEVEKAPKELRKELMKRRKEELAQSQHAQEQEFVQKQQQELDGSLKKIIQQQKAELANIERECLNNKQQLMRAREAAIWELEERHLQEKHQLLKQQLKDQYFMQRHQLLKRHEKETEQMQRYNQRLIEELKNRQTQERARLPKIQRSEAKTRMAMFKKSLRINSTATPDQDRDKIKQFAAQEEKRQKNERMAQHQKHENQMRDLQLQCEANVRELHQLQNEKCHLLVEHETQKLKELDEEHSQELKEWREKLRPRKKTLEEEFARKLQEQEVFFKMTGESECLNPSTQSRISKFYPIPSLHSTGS
# BMPR1A (human) = BMPR1A (human) (UniProt P36894); assay: ELISA
# BRAF (human) = BRAF (human) (UniProt P15056); assay: ELISA
# LIMK1 (human) = LIMK1 (human) (UniProt P53667); assay: ELISA
# MAP2K1 (human) = MAP2K1 (human) (UniProt Q02750); assay: ELISA
# Chain of MAP2K1 (human) (Q02750 whole entry, looked up): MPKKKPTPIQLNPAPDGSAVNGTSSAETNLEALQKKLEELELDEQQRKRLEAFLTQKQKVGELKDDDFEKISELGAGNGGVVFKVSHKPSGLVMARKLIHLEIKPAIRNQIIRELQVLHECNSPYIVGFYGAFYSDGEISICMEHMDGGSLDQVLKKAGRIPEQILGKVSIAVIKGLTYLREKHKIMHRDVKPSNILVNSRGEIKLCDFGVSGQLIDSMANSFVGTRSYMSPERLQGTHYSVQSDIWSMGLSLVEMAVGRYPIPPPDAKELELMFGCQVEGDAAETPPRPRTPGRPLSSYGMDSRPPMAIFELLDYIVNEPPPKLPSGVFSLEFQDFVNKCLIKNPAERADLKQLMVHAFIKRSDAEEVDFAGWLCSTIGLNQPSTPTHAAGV
# MAP2K2 (human) = MAP2K2 (human) (UniProt P36507); assay: ELISA
# MAP2K3 (human) = MAP2K3 (human) (UniProt P46734); assay: ELISA
# Chain of MAP2K3 (human) (P46734 whole entry, looked up): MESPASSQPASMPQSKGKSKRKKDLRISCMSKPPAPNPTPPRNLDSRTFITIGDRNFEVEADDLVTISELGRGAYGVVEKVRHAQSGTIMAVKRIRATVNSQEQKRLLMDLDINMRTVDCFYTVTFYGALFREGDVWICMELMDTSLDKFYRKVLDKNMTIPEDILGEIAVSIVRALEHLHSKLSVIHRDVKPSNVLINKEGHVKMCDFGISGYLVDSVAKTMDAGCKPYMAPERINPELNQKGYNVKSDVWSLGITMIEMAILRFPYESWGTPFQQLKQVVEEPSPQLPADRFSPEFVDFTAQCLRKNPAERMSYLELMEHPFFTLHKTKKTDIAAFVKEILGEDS
# MAP2K4 (human) = MAP2K4 (human) (UniProt P45985); assay: ELISA
# Chain of MAP2K4 (human) (P45985 whole entry, looked up): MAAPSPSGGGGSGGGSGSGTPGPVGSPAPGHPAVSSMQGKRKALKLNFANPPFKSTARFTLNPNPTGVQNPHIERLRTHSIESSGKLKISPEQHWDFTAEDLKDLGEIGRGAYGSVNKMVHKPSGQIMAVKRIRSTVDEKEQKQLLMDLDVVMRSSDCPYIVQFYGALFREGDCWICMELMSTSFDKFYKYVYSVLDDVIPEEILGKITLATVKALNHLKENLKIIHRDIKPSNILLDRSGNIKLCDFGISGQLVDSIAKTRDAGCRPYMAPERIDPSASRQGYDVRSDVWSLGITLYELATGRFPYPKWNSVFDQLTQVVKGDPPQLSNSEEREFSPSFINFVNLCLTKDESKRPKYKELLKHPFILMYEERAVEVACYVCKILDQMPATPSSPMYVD
# MAP2K5 (human) = MAP2K5 (human) (UniProt Q13163); assay: ELISA
# MAP2K6 (human) = MAP2K6 (human) (UniProt P52564); assay: ELISA
# Chain of MAP2K6 (human) (P52564 whole entry, looked up): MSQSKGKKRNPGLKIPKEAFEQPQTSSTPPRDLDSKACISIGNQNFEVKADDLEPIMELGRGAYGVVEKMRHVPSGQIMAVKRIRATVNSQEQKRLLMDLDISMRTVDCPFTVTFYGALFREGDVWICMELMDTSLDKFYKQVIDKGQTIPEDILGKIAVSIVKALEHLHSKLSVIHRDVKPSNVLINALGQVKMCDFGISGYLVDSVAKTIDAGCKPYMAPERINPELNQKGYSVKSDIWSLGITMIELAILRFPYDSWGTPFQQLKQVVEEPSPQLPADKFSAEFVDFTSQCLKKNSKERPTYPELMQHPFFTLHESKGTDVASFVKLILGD
# MAP2K7 (human) = MAP2K7 (human) (UniProt O14733); assay: ELISA
# Chain of MAP2K7 (human) (O14733 whole entry, looked up): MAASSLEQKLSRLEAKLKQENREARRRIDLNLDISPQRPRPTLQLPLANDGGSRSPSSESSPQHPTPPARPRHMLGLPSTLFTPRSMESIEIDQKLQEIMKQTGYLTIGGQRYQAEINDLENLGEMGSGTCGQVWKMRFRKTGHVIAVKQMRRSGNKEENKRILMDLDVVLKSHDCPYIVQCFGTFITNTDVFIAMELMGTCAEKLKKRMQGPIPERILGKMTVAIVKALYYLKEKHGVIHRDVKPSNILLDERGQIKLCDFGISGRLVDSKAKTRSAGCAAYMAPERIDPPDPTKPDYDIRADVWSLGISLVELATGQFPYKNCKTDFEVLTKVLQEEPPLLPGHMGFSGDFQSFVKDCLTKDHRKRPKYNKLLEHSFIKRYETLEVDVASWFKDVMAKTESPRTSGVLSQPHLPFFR
# MAP3K1 (human) = MAP3K1 (human) (UniProt Q13233); assay: ELISA
# MAP3K10 (human) = MAP3K10 (human) (UniProt Q02779); assay: ELISA
# MAP3K11 (human) = MAP3K11 (human) (UniProt Q16584); assay: ELISA
# Chain of MAP3K11 (human) (Q16584 whole entry, looked up): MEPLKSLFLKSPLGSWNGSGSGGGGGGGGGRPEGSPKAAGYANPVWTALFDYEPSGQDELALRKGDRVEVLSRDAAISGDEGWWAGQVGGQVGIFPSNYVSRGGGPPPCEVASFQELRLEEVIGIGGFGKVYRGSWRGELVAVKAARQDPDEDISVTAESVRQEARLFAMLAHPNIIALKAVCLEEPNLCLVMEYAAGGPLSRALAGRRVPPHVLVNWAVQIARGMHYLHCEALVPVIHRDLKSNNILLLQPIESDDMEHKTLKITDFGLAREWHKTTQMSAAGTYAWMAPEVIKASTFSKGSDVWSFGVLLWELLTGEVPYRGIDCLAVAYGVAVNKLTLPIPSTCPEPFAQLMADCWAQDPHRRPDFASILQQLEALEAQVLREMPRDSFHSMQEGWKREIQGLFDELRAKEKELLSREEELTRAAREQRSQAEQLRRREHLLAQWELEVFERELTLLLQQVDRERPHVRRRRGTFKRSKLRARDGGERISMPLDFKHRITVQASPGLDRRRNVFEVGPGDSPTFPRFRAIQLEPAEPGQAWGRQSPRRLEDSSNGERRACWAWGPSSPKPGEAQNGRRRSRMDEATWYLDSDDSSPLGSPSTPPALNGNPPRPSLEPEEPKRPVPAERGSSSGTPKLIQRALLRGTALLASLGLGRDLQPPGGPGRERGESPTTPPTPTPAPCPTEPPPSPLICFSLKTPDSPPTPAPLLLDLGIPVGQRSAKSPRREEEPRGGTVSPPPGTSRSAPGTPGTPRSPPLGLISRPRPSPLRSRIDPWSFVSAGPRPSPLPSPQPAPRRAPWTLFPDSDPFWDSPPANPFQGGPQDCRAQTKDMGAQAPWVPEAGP
# MAP3K12 (human) = MAP3K12 (human) (UniProt Q12852); assay: ELISA
# Chain of MAP3K12 (human) (Q12852 whole entry, looked up): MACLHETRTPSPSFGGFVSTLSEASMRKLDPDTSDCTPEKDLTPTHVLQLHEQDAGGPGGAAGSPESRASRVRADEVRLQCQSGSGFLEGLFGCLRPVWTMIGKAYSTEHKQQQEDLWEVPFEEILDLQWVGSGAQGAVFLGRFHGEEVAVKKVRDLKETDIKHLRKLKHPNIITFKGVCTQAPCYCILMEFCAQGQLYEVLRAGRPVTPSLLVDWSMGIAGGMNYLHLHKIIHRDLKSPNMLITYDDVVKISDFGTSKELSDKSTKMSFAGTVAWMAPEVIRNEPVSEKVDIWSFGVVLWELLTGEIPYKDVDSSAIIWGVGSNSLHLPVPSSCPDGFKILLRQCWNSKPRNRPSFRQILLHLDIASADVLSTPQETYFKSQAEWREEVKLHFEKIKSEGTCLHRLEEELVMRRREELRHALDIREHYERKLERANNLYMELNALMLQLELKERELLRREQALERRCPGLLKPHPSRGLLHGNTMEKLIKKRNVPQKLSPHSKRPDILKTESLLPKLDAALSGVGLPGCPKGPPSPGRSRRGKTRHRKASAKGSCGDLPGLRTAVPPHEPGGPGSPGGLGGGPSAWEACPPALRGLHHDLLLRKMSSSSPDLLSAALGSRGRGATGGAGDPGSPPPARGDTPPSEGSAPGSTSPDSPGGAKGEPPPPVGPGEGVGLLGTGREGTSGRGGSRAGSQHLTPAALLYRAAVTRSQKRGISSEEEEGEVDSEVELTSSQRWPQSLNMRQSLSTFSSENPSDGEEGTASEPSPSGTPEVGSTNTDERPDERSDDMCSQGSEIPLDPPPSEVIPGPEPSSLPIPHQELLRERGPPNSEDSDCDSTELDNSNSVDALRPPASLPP
# MAP3K2 (human) = MAP3K2 (human) (UniProt Q9Y2U5); assay: ELISA
# MAP3K3 (human) = MAP3K3 (human) (UniProt Q99759); assay: ELISA
# MAP3K4 (human) = MAP3K4 (human) (UniProt Q9Y6R4); assay: ELISA
# MAP3K5 (human) = MAP3K5 (human) (UniProt Q99683); assay: ELISA
# MAP3K8 (human) = MAP3K8 (human) (UniProt P41279); assay: ELISA
# MAP3K9 (human) = MAP3K9 (human) (UniProt P80192); assay: ELISA
# MOS (human) = MOS (human) (UniProt P00540); assay: ELISA
# PLK4 (human) = PLK4 (human) (UniProt O00444); assay: ELISA
# RAF1 (human) = RAF1 (human) (UniProt P04049); assay: ELISA
# STK11 (human) = STK11 (human) (UniProt Q15831); assay: ELISA
# TTK (human) = TTK (human) (UniProt P33981); assay: ELISA
# WEE1 (human) = WEE1 (human) (UniProt P30291); assay: ELISA
smiles,measurement,setting,value
COc1cc2c(Oc3ccc4[nH]c(C)cc4c3F)ncnc2cc1OCCCN1CCCC1,inhibition,CDC42BPA (human); compound 0.02 µM,3.4%
same,inhibition,CDC42BPA (human); compound 0.2 µM,14.9%
same,inhibition,CSNK1G1 (human); compound 0.02 µM,-2%
same,inhibition,CSNK1G1 (human); compound 0.2 µM,-0.6%
same,inhibition,DYRK3 (human); compound 0.02 µM,-7.2%
same,inhibition,DYRK3 (human); compound 0.2 µM,-7.9%
same,inhibition,IRAK4 (human); compound 0.02 µM,-5.6%
same,inhibition,IRAK4 (human); compound 0.2 µM,-5.6%
same,inhibition,MAPK12 (human); compound 0.02 µM,-4.8%
same,inhibition,MAPK12 (human); compound 0.2 µM,-0.1%
same,inhibition,MST4 (human); compound 0.02 µM,-7.3%
same,inhibition,MST4 (human); compound 0.2 µM,-3%
same,inhibition,NTRK2 (human); compound 0.02 µM,8.3%
same,inhibition,PRKACA (human); compound 0.02 µM,-2.9%
same,inhibition,PRKACA (human); compound 0.2 µM,-4.8%
same,inhibition,SLK (human); compound 0.02 µM,37.5%
same,inhibition,SLK (human); compound 0.2 µM,85%
same,inhibition,BMPR1A (human); compound 0.02 µM,8.3%
same,inhibition,BMPR1A (human); compound 0.2 µM,-7.9%
same,inhibition,BRAF (human); compound 0.2 µM,2%
same,inhibition,LIMK1 (human); compound 0.02 µM,-7.3%
same,inhibition,LIMK1 (human); compound 0.2 µM,-7.8%
same,inhibition,MAP2K1 (human); compound 0.02 µM,-0.6%
same,inhibition,MAP2K1 (human); compound 0.2 µM,-2.4%
same,inhibition,MAP2K2 (human); compound 0.02 µM,-4.9%
same,inhibition,MAP2K2 (human); compound 0.2 µM,-23%
same,inhibition,MAP2K3 (human); compound 0.02 µM,-7.4%
same,inhibition,MAP2K3 (human); compound 0.2 µM,-2.9%
same,inhibition,MAP2K4 (human); compound 0.02 µM,0.9%
same,inhibition,MAP2K4 (human); compound 0.2 µM,-5.2%
same,inhibition,MAP2K5 (human); compound 0.2 µM,-8.2%
same,inhibition,MAP2K6 (human); compound 0.02 µM,2.8%
same,inhibition,MAP2K6 (human); compound 0.2 µM,-5%
same,inhibition,MAP2K7 (human); compound 0.02 µM,-6.9%
same,inhibition,MAP2K7 (human); compound 0.2 µM,-3.5%
same,inhibition,MAP3K1 (human); compound 0.02 µM,1.2%
same,inhibition,MAP3K1 (human); compound 0.2 µM,-1%
same,inhibition,MAP3K10 (human); compound 0.02 µM,3.6%
same,inhibition,MAP3K10 (human); compound 0.2 µM,6%
same,inhibition,MAP3K11 (human); compound 0.02 µM,-1.7%
same,inhibition,MAP3K11 (human); compound 0.2 µM,-0.3%
same,inhibition,MAP3K12 (human); compound 0.02 µM,8.9%
same,inhibition,MAP3K12 (human); compound 0.2 µM,10.3%
same,inhibition,MAP3K2 (human); compound 0.02 µM,1.9%
same,inhibition,MAP3K2 (human); compound 0.2 µM,4.4%
same,inhibition,MAP3K3 (human); compound 0.02 µM,1.2%
same,inhibition,MAP3K3 (human); compound 0.2 µM,2.9%
same,inhibition,MAP3K4 (human); compound 0.02 µM,-1.7%
same,inhibition,MAP3K4 (human); compound 0.2 µM,-6.3%
same,inhibition,MAP3K5 (human); compound 0.02 µM,8.7%
same,inhibition,MAP3K5 (human); compound 0.2 µM,4%
same,inhibition,MAP3K8 (human); compound 0.02 µM,-3.2%
same,inhibition,MAP3K8 (human); compound 0.2 µM,-1%
same,inhibition,MAP3K9 (human); compound 0.02 µM,4.9%
same,inhibition,MAP3K9 (human); compound 0.2 µM,10.5%
same,inhibition,MOS (human); compound 0.02 µM,4.2%
same,inhibition,MOS (human); compound 0.2 µM,3.7%
same,inhibition,PLK4 (human); compound 0.02 µM,7.6%
same,inhibition,PLK4 (human); compound 0.2 µM,8.4%
same,inhibition,RAF1 (human); compound 0.02 µM,3.1%
same,inhibition,RAF1 (human); compound 0.2 µM,-1.7%
same,inhibition,STK11 (human); compound 0.02 µM,0.9%
same,inhibition,STK11 (human); compound 0.2 µM,19%
same,inhibition,TTK (human); compound 0.02 µM,-4%
same,inhibition,TTK (human); compound 0.2 µM,-2%
same,inhibition,WEE1 (human); compound 0.02 µM,-5.4%
same,inhibition,WEE1 (human); compound 0.2 µM,0.5%
CNC(=O)c1ccccc1Sc1ccc2c(/C=C/c3ccccn3)n[nH]c2c1,inhibition,CDC42BPA (human); compound 0.001 µM,4.2%
same,inhibition,CDC42BPA (human); compound 0.02 µM,10.2%
same,inhibition,CSNK1G1 (human); compound 0.001 µM,-4.5%
same,inhibition,CSNK1G1 (human); compound 0.02 µM,-3.6%
same,inhibition,DYRK3 (human); compound 0.001 µM,-18.5%
same,inhibition,DYRK3 (human); compound 0.02 µM,-6.4%
same,inhibition,IRAK4 (human); compound 0.001 µM,-5.7%
same,inhibition,IRAK4 (human); compound 0.02 µM,-6.7%
same,inhibition,MAPK12 (human); compound 0.001 µM,-3.7%
same,inhibition,MAPK12 (human); compound 0.02 µM,-4.6%
same,inhibition,MST4 (human); compound 0.001 µM,-4.6%
same,inhibition,MST4 (human); compound 0.02 µM,-8%
same,inhibition,NTRK2 (human); compound 0.001 µM,5.8%
same,inhibition,NTRK2 (human); compound 0.02 µM,10.5%
same,inhibition,PRKACA (human); compound 0.001 µM,-7.9%
same,inhibition,PRKACA (human); compound 0.02 µM,-10.1%
same,inhibition,SLK (human); compound 0.001 µM,-5.4%
same,inhibition,SLK (human); compound 0.02 µM,10.3%
same,inhibition,BMPR1A (human); compound 0.001 µM,-0.4%
same,inhibition,BMPR1A (human); compound 0.02 µM,1.1%
same,inhibition,BRAF (human); compound 0.001 µM,-1.8%
same,inhibition,BRAF (human); compound 0.02 µM,-4.5%
same,inhibition,LIMK1 (human); compound 0.001 µM,1.5%
same,inhibition,LIMK1 (human); compound 0.02 µM,-2.6%
same,inhibition,MAP2K1 (human); compound 0.001 µM,4.3%
same,inhibition,MAP2K1 (human); compound 0.02 µM,-1.3%
same,inhibition,MAP2K2 (human); compound 0.001 µM,-7.9%
same,inhibition,MAP2K2 (human); compound 0.02 µM,0.1%
same,inhibition,MAP2K3 (human); compound 0.001 µM,-2.7%
same,inhibition,MAP2K3 (human); compound 0.02 µM,-2.2%
same,inhibition,MAP2K4 (human); compound 0.001 µM,-0.4%
same,inhibition,MAP2K4 (human); compound 0.02 µM,-5.7%
same,inhibition,MAP2K5 (human); compound 0.001 µM,-15.6%
same,inhibition,MAP2K5 (human); compound 0.02 µM,-11.8%
same,inhibition,MAP2K6 (human); compound 0.001 µM,3.2%
same,inhibition,MAP2K6 (human); compound 0.02 µM,2.3%
same,inhibition,MAP2K7 (human); compound 0.001 µM,-1.2%
same,inhibition,MAP2K7 (human); compound 0.02 µM,-3.4%
same,inhibition,MAP3K1 (human); compound 0.001 µM,-3.7%
same,inhibition,MAP3K1 (human); compound 0.02 µM,-3.5%
same,inhibition,MAP3K10 (human); compound 0.001 µM,4.4%
same,inhibition,MAP3K10 (human); compound 0.02 µM,2.7%
same,inhibition,MAP3K11 (human); compound 0.001 µM,-5.9%
same,inhibition,MAP3K11 (human); compound 0.02 µM,-7.1%
same,inhibition,MAP3K12 (human); compound 0.001 µM,6.6%
same,inhibition,MAP3K12 (human); compound 0.02 µM,4.3%
same,inhibition,MAP3K2 (human); compound 0.001 µM,-0.4%
same,inhibition,MAP3K2 (human); compound 0.02 µM,1.9%
same,inhibition,MAP3K3 (human); compound 0.001 µM,6.6%
same,inhibition,MAP3K3 (human); compound 0.02 µM,0.5%
same,inhibition,MAP3K4 (human); compound 0.001 µM,-7.9%
same,inhibition,MAP3K4 (human); compound 0.02 µM,-1.7%
same,inhibition,MAP3K5 (human); compound 0.001 µM,-2%
same,inhibition,MAP3K5 (human); compound 0.02 µM,-2.8%
same,inhibition,MAP3K8 (human); compound 0.001 µM,-5.7%
same,inhibition,MAP3K8 (human); compound 0.02 µM,-0.7%
same,inhibition,MAP3K9 (human); compound 0.001 µM,1.1%
same,inhibition,MAP3K9 (human); compound 0.02 µM,0.1%
same,inhibition,MOS (human); compound 0.001 µM,-7.5%
same,inhibition,MOS (human); compound 0.02 µM,-15.4%
same,inhibition,PLK4 (human); compound 0.001 µM,23.3%
same,inhibition,PLK4 (human); compound 0.02 µM,48.9%
same,inhibition,RAF1 (human); compound 0.001 µM,0.9%
same,inhibition,RAF1 (human); compound 0.02 µM,-3%
same,inhibition,STK11 (human); compound 0.001 µM,1.9%
same,inhibition,STK11 (human); compound 0.02 µM,0.2%
same,inhibition,TTK (human); compound 0.001 µM,-2.7%
same,inhibition,TTK (human); compound 0.02 µM,-3.2%
same,inhibition,WEE1 (human); compound 0.001 µM,-2.1%
same,inhibition,WEE1 (human); compound 0.02 µM,1.5%
